Starred links: 1 amine or outer side, 2 acyl side, 3 side chain; linkers in the order of their positions; H or OH if unused. Non-standard residues stand in square brackets, D forms with d. Residues, ends and D or L forms follow the SMILES beside them. Groups on a side chain read outwards from the residue. *: point of attachment. C20 diacid = O=C(O)CCCCCCCCCCCCCCCCCCC(=O)*; C18 diacid = O=C(O)CCCCCCCCCCCCCCCCC(=O)*; γGlu = O=C(O)[C@H](CCC(=O)[*:2])N[*:1]; Aib = CC(C)(N)C(=O)O
Assay: PK measurements for half life assessment in pigs
Type: in vivo, pig
Settings: plasma, single subcutaneous injection, time from tmax to half of Cmax, typically mean of four animals; for half-life: male, large white, pig, sc
Protocol: Male large white pigs receive a single subcutaneous injection of the test compound at the start of study (0 hours). Repeated blood samples were taken from the pig over the proceeding 168 hours and plasma separated and stored at −20 to −80° C. Plasma concentration of the test compound was quantified using a radioimmunoassay or mass spectrum analysis. Time taken from tmax to half of Cmax was calculated and represents the half-life (t½) of the compound. Typically, the presented t½ is the mean of four separate animals.

| half-life [h] | Half life (male large white pigs) [h] | Compound |
| --- | --- | --- |
| 84 |  | CC[C@H](C)[C@H](NC(=O)[C@H](Cc1ccccc1)NC(=O)[C@H](CCC(=O)O)NC(=O)[C@H](CCCNC(=N)N)NC(=O)[C@H](C)NC(=O)[C@H](CCCNC(=N)N)NC(=O)[C@H](CCCCN)NC(=O)[C@H](C)NC(=O)[C@H](CC(=O)O)NC(=O)[C@H](CC(C)C)NC(=O)[C@H](Cc1ccc(O)cc1)NC(=O)[C@H](CCCCN)NC(=O)[C@H](CO)NC(=O)[C@H](Cc1ccc(O)cc1)NC(=O)[C@H](CC(=O)O)NC(=O)[C@H](CO)NC(=O)[C@@H](NC(=O)[C@H](Cc1ccccc1)NC(=O)[C@@H](NC(=O)CNC(=O)[C@H](Cc1c[nH]cn1)NC(=O)C(C)(C)NC(=O)[C@@H](N)Cc1c[nH]cn1)[C@@H](C)O)[C@@H](C)O)C(=O)N[C@@H](CCC(=O)O)C(=O)N[C@@H](Cc1c[nH]c2ccccc12)C(=O)N[C@@H](CC(C)C)C(=O)N[C@@H](CC(C)C)C(=O)N[C@@H](CCC(N)=O)C(=O)N[C@@H](CO)C(=O)N[C@@H](Cc1c[nH]cn1)C(=O)N[C@@H](CCC(N)=O)C(=O)N[C@@H](CCC(N)=O)C(=O)N[C@@H](Cc1c[nH]cn1)C(=O)N1CCC[C@H]1C(=O)N[C@@H](CO)C(=O)N1CCC[C@H]1C(=O)N1CCC[C@H]1C(=O)N1CCC[C@H]1C(=O)NCC(=O)N[C@@H](CCCCNC(=O)[C@H](CC(N)=O)NC(=O)CC[C@H](NC(=O)CCCCCCCCCCCCCCCCCCC(=O)O)C(=O)O)C(=O)O [Example 705] (H-H[Aib]HGTFTSDYSKYLDAKRAREFIEWLLQSHQQHPSPPPGK([Asn-γGlu-C20 diacid])-OH) |
| 110 |  | CC[C@H](C)[C@H](NC(=O)[C@H](Cc1ccccc1)NC(=O)[C@H](CCC(=O)O)NC(=O)[C@H](CCC(N)=O)NC(=O)[C@H](C)NC(=O)[C@H](CCCNC(=N)N)NC(=O)[C@H](CCCCN)NC(=O)[C@H](C)NC(=O)[C@H](CC(=O)O)NC(=O)[C@H](CC(C)C)NC(=O)[C@H](Cc1ccc(O)cc1)NC(=O)[C@H](CCCCN)NC(=O)[C@H](CO)NC(=O)[C@H](Cc1ccc(O)cc1)NC(=O)[C@H](CC(=O)O)NC(=O)[C@H](CO)NC(=O)[C@@H](NC(=O)[C@H](Cc1ccccc1)NC(=O)[C@@H](NC(=O)CNC(=O)[C@H](Cc1c[nH]cn1)NC(=O)C(C)(C)NC(=O)[C@@H](N)Cc1c[nH]cn1)[C@@H](C)O)[C@@H](C)O)C(=O)N[C@@H](CCC(=O)O)C(=O)N[C@@H](Cc1c[nH]c2ccccc12)C(=O)N[C@@H](CC(C)C)C(=O)N[C@@H](CC(C)C)C(=O)N[C@@H](CCC(N)=O)C(=O)N[C@@H](CO)C(=O)N[C@@H](Cc1c[nH]cn1)C(=O)N[C@@H](CCC(N)=O)C(=O)N[C@@H](CCC(N)=O)C(=O)N[C@@H](Cc1c[nH]cn1)C(=O)N1CCC[C@H]1C(=O)N[C@@H](CO)C(=O)N1CCC[C@H]1C(=O)N1CCC[C@H]1C(=O)N1CCC[C@H]1C(=O)NCC(=O)N[C@@H](CCCCNC(=O)[C@H](CC(N)=O)NC(=O)CC[C@H](NC(=O)CCCCCCCCCCCCCCCCCCC(=O)O)C(=O)O)C(=O)O [Example 706] (H-H[Aib]HGTFTSDYSKYLDAKRAQEFIEWLLQSHQQHPSPPPGK([Asn-γGlu-C20 diacid])-OH) |
| 103 |  | CC[C@H](C)[C@H](NC(=O)[C@H](Cc1ccccc1)NC(=O)[C@H](CCC(=O)O)NC(=O)[C@H](CCC(N)=O)NC(=O)[C@H](C)NC(=O)[C@H](CCCNC(=N)N)NC(=O)[C@H](CCCCN)NC(=O)[C@H](C)NC(=O)[C@H](CC(=O)O)NC(=O)[C@H](CC(C)C)NC(=O)[C@H](Cc1ccc(O)cc1)NC(=O)[C@H](CCCCN)NC(=O)[C@H](CO)NC(=O)[C@H](Cc1ccc(O)cc1)NC(=O)[C@H](CC(=O)O)NC(=O)[C@H](CO)NC(=O)[C@@H](NC(=O)[C@H](Cc1ccccc1)NC(=O)[C@@H](NC(=O)CNC(=O)[C@H](Cc1c[nH]cn1)NC(=O)C(C)(C)NC(=O)[C@@H](N)Cc1c[nH]cn1)[C@@H](C)O)[C@@H](C)O)C(=O)N[C@@H](CCC(=O)O)C(=O)N[C@@H](Cc1c[nH]c2ccccc12)C(=O)N[C@@H](CC(C)C)C(=O)N[C@@H](CC(C)C)C(=O)N[C@@H](CCC(N)=O)C(=O)N[C@@H](CO)C(=O)N[C@@H](Cc1c[nH]cn1)C(=O)N[C@@H](CCC(N)=O)C(=O)N[C@@H](CCC(N)=O)C(=O)N[C@@H](Cc1c[nH]cn1)C(=O)N1CCC[C@H]1C(=O)N[C@@H](CO)C(=O)N[C@@H](CO)C(=O)N[C@@H](CO)C(=O)N[C@@H](CO)C(=O)N[C@@H](C)C(=O)N[C@@H](CCCCNC(=O)[C@H](CC(N)=O)NC(=O)CC[C@H](NC(=O)CCCCCCCCCCCCCCCCCCC(=O)O)C(=O)O)C(=O)O [Example 707] (H-H[Aib]HGTFTSDYSKYLDAKRAQEFIEWLLQSHQQHPSSSSAK([Asn-γGlu-C20 diacid])-OH) |
| 105 |  | CC[C@H](C)[C@H](NC(=O)[C@H](Cc1ccccc1)NC(=O)[C@H](CCC(=O)O)NC(=O)[C@H](CCC(N)=O)NC(=O)[C@H](C)NC(=O)[C@H](CCCNC(=N)N)NC(=O)[C@H](CCCCN)NC(=O)[C@H](C)NC(=O)[C@H](CC(=O)O)NC(=O)[C@H](CC(C)C)NC(=O)[C@H](Cc1ccc(O)cc1)NC(=O)[C@H](CCCCN)NC(=O)[C@H](CO)NC(=O)[C@H](Cc1ccc(O)cc1)NC(=O)[C@H](CC(=O)O)NC(=O)[C@H](CO)NC(=O)[C@@H](NC(=O)[C@H](Cc1ccccc1)NC(=O)[C@@H](NC(=O)CNC(=O)[C@H](Cc1c[nH]cn1)NC(=O)C(C)(C)NC(=O)[C@@H](N)Cc1c[nH]cn1)[C@@H](C)O)[C@@H](C)O)C(=O)N[C@@H](CCC(=O)O)C(=O)N[C@@H](Cc1c[nH]c2ccccc12)C(=O)N[C@@H](CC(C)C)C(=O)N[C@@H](CC(C)C)C(=O)N[C@@H](CCC(N)=O)C(=O)N[C@@H](CO)C(=O)N[C@@H](Cc1c[nH]cn1)C(=O)N[C@@H](CCC(N)=O)C(=O)N[C@@H](CCC(N)=O)C(=O)N[C@@H](Cc1c[nH]cn1)C(=O)N1CCC[C@H]1C(=O)N[C@@H](CO)C(=O)N[C@@H](CO)C(=O)N[C@@H](CO)C(=O)N[C@@H](C)C(=O)N[C@@H](CCCCNC(=O)[C@H](CC(N)=O)NC(=O)CC[C@H](NC(=O)CCCCCCCCCCCCCCCCCCC(=O)O)C(=O)O)C(=O)O [Example 708] (H-H[Aib]HGTFTSDYSKYLDAKRAQEFIEWLLQSHQQHPSSSAK([Asn-γGlu-C20 diacid])-OH) |
| 106 |  | H-H[Aib]HGTFTSDYSKYLDAKRAQEFIEWLLQSHHQQHESPPPGK([Asn-γGlu-C20 diacid])-OH [Example 647] |
| 42 |  | H-H[Aib]HGTFTSDYSKYLDAKRAQEFIEWLLQSHHQQHESPPPGK([γGlu-C20 diacid])-OH [Example 646] |
|  | 66 | H-H[Aib]HGTFTSDYSKYLDAKRAQEFIEWLLQSHHQQHESPPPGK([γGlu-C20 diacid])-OH [Example 701] |
| 135 |  | H-H[Aib]HGTFTSDYSKYLDAKRAQEFIEWLLQSHQHQHESPPPGK([His-Asn-γGlu-C18 diacid])-OH [Example 640] |
| 109 |  | H-H[Aib]HGTFTSDYSKYLDAKRAQEFIEWLLQSHQQHHESPPPGK([γGlu-C20 diacid])-OH [Example 642] |

From patent publication US12516095B2, “Peptide hormone analogues” (IP2IPO INNOVATIONS LIMITED, priority 2019, dated 2026)
